≈ marks a conversion by molar mass, not a printed value. Read-outs that look alike come from different tables or passages of the source.
Columns and labels:
[1] = cited from earlier work
[2] = Packing of metazachlor in C16 protein microbeads, active substance distribution (photometric at 215 nm); assay type: physicochemical
Description: 500 μl of a 10 mg/ml C16 protein-comprising potassium phosphate solution (5 mM, pH 8.0) were mixed with 100 μl of a metazachlor solution (50 mg/ml in isopropanol). C16 Protein microbead formation was induced by adding 1 ml of 1 M potassium phosphate buffer (pH 8.0). The mixture was incubated for 1 h at room temperature and then centrifuged for 10 min at 20000×g. The pellet was washed twice with 5 ml of double-distilled H2O and then lyophilized. An identical mixture without C16 protein was carried out as control.
In each case, about 20% of the active substance were present in the wash supernatants.
(§1) Analysis of the Active Substance Distribution (Photometric Determination at λ=215 nm)

proteinase K = proteinase K (Parengyodontium album, UniProt P06873); assay: Release of metazachlor from C16 protein microbeads by proteinase K digestion
Description: The lyophilized metazachlor-comprising C16 protein microbeads were proteolytically digested in 1 ml of 10 mM Tris buffer; 0.1% SDS; 100 μg of proteinase K for 1 h at 37° C. The active substance crystals remaining from the mixture after centrifugation for 10 minutes (20000×g) were dissolved in 500 μl of isopropanol. About 11% of the amount of metazachlor used was detected in the supernatant of the protease digestion. The active substance crystals redissolved in isopropanol constituted about 35% of the amount of metazachlor used.
as §1

[3] = of the amount of metazachlor used
[4] = proteinase K, 1 h, 37° C., 5.0 mg metazachlor used

proteinase K, sequence (P06873 106-384): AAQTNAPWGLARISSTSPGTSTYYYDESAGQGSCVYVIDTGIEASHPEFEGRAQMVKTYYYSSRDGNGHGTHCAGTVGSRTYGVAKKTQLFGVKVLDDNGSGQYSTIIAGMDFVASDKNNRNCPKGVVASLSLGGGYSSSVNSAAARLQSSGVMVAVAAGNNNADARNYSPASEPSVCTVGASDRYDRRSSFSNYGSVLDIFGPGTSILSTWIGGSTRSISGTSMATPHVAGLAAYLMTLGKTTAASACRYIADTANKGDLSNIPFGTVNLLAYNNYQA

NC(=O)N1c2ccccc2C=Cc2ccccc21 [Carbamazipine]
Solubility in water ([1]; RT): 945.1 µg/mL (≈ 4000 µM)

Clc1ccccc1C(c1ccccc1)(c1ccccc1)n1ccnc1 [Clotrimazole]
Solubility in water ([1]; 25° C.): <10 µg/mL

Cc1cccc(C)c1N(Cn1cccn1)C(=O)CCl [metazachlor]
Crystal formation after potassium phosphate precipitation ([2]; mixture with C16 protein): no metazachlor crystals were visible
Crystal formation after potassium phosphate precipitation ([2]; mixture without C16 protein): large active substance crystals were formed
Active substance crystals redissolved in isopropanol (proteinase K; [3]): about 35%
Metazachlor detected in the supernatant of the protease digestion (proteinase K; [3]): About 11%
Amount of substance, pellet after digestion in isopropanol (proteinase K; [4]): 1.74 mg
Amount of substance, supernatant after protease digestion (proteinase K; [4]): 0.55 mg

B1: C16 protein: synthetic spider silk protein with the polypeptide sequence shown in SEQ ID NO: 1 (protein)
chain: MASMTGGQQMGRGSMGSSAAAAAAAASGPGGYGPENQGPSGPGGYGPGGPGSSAAAAAAAASGPGGYGPENQGPSGPGGYGPGGPGSSAAAAAAAASGPGGYGPENQGPSGPGGYGPGGPGSSAAAAAAAASGPGGYGPENQGPSGPGGYGPGGPGSSAAAAAAAASGPGGYGPENQGPSGPGGYGPGGPGSSAAAAAAAASGPGGYGPENQGPSGPGGYGPGGPGSSAAAAAAAASGPGGYGPENQGPSGPGGYGPGGPGSSAAAAAAAASGPGGYGPENQGPSGPGGYGPGGPGSSAAAAAAAASGPGGYGPENQGPSGPGGYGPGGPGSSAAAAAAAASGPGGYGPENQGPSGPGGYGPGGPGSSAAAAAAAASGPGGYGPENQGPSGPGGYGPGGPGSSAAAAAAAASGPGGYGPENQGPSGPGGYGPGGPGSSAAAAAAAASGPGGYGPENQGPSGPGGYGPGGPGSSAAAAAAAASGPGGYGPENQGPSGPGGYGPGGPGSSAAAAAAAASGPGGYGPENQGPSGPGGYGPGGPGSSAAAAAAAASGPGGYGPENQGPSGPGGYGPGGPG
modifications: Synthetic spider silk C16 protein
Effect on the crystallization of metazachlor ([2]; in the presence of aqueous potassium phosphate buffer): significant inhibitiory effect

Source: US8288512B2, “Use of amphiphilic self-assembling proteins for formulating poorly water-soluble effect substances” (BASF SE, priority 2006, dated 2012)
